Measurements taken from US11529350B2, “Tyrosine kinase non-receptor 1 (TNK1) inhibitors and uses thereof” (Sumitomo Pharma Oncology, Inc., priority 2019, dated 2022).

Experiments:
[1] = system: phospho-STAT5 in L540 cells; assay: In vitro pSTAT5 assay (ELISA) in L540 cells; format: cell-based; settings: Homo sapiens, L-540, 24 hours, normalized to cell viability, read-out: P-STAT5 Assay IC50
Procedure: The L540 cell line harbors a truncating mutation in the C-terminal regulatory region of the protein. As a consequence, TNK1 in L540 cells is constitutively active in phosphorylating key proteins, including STAT5. In TNK1 wild-type conditions (e.g., K562 CML cells), STAT5 phosphorylation is achieved in a TNK1-independent fashion. As such, reductions in phospho-STAT5 signal specific to the L540 cells are a good readout of TNK1 inhibitor function.
Methods: The in vitro pSTAT5 assay was performed with STAT5 AB (pY964/699) SimpleStep ELISA Kit (Abcam No. ab176656) according to the manufacturer's protocol. Briefly, L540 cells were grown in RPMI1640 media under standard culture conditions (10% FBS with penicillin/streptomycin). To assess test compound effects, cells were plated in 96 well plates (250,000 cells/mL) and allowed to grow overnight. Cells were subsequently treated with varying concentrations of test compound for 24 hours, before being harvested and interrogated with the STAT5 AB (pY964/699) SimpleStep ELISA Kit according to the manufacturer's protocol. Phospho-STAT5 signal was normalized to cell viability, as assessed by the CellTiter-Glo assay (Promega, Cat. No. G7570) on treated cells. TNK1 inhibitor IC50s were determined using Graphpad Prism software on normalized phospho-STAT5 measurements.

[2] = molecular target: T1, TNK1 (Homo sapiens, UniProt Q13470); assay: RBC HotSpot Kinase Assay; format: biochemical; parameters: purchased Reaction Biology Corp., Malvern, Pa; settings: ATP 10 μM
T1 sequence (Q13470 1-666): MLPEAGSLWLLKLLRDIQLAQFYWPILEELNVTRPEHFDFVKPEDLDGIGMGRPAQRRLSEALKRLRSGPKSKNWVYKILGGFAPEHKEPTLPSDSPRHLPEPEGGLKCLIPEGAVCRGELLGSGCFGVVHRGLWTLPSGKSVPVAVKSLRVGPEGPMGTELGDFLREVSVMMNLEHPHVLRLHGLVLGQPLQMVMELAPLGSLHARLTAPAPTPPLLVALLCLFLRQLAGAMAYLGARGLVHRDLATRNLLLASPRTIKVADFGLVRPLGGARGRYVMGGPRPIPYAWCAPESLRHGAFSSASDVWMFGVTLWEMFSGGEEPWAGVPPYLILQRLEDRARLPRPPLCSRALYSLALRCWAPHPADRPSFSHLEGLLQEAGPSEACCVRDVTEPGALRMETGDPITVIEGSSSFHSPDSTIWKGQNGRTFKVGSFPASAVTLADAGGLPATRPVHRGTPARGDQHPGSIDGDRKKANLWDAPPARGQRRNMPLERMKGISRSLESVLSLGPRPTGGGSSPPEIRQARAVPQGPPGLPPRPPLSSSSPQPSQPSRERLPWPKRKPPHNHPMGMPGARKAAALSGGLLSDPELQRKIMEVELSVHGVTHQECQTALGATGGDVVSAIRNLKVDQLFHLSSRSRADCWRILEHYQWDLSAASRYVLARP
Procedure: The RBC HotSpot Kinase assay (Reaction Biology Corp., Malvern, Pa.) was used to evaluate the ability of test compounds to modulate (e.g., inhibit) the enzymatic activity of human TNK1 (UniProt Accession No. Q13470) in the following reaction:
Reagent: Base Reaction buffer; 20 mM Hepes (pH 7.5), 10 mM MgCl2, 1 mM EGTA, 0.02% Brij35, 0.02 mg/ml BSA, 0.1 mM Na3VO4, 2 mM DTT, 1% DMSO. Required cofactors were added individually to each kinase reaction.
Compound handling: Test compounds were dissolved in 100% DMSO to specific concentration. The serial dilution was conducted by Integra Viaflo Assist in DMSO.
1. Prepared substrate (peptide substrate, poly[Glu:Tyr] (4:1), 0.2 mg/ml; ATP 10 μM) in freshly prepared Reaction Buffer;
2. Delivered any required cofactors to the substrate solution;
3. Delivered kinase (TNK1) into the substrate solution and gently mixed;
4. Delivered compounds in 100% DMSO into the kinase reaction mixture by Acoustic technology (Echo550; nanoliter range), incubated for 20 minutes at room temperature;
5. Delivered ^33P-ATP (specific activity 10 μCi/μl) into the reaction mixture to initiate the reaction;
6. Incubated for 2 hours at room temperature;
7. Detected radioactivity by filter-binding method;
8. Kinase activity data were expressed as the percent remaining kinase activity in test samples compared to vehicle (dimethyl sulfoxide) reactions. IC50 values and curve fits were obtained using Prism (GraphPad Software).

SMILES	IC50 [1] [nM]	IC50 [2] [nM]
COc1cc(N2CCN(C)CC2)c(Cl)cc1Nc1ncc(Cl)c(Nc2cccnc2N2CCCC2=O)n1 [Example No. 13, 1-(3-((5-chloro-2-((5-chloro-2-methoxy-4-(4-methylpiperazin-1-yl)phenyl)amino)pyrimidin-4-yl)amino)pyridin-2-yl)pyrrolidin-2-one]	< 5	< 5
CN1CCN(c2c(Cl)cc(Nc3ncc(Cl)c(Nc4cccnc4N4CCCC4=O)n3)c3ccccc23)CC1 [Example No. 18, 1-(3-((5-chloro-2-((3-chloro-4-(4-methylpiperazin-1-yl)naphthalen-1-yl)amino)pyrimidin-4-yl)amino)pyridin-2-yl)pyrrolidin-2-one]	< 5	< 5
COc1cc(N2CCN(C)CC2)c(Cl)cc1Nc1ncc(Cl)c(Nc2cccnc2N2CCNC2=O)n1 [Example No. 21, 1-(3-((5-chloro-2-((5-chloro-2-methoxy-4-(4-methylpiperazin-1-yl)phenyl)amino)pyrimidin-4-yl)amino)pyridin-2-yl)imidazolidin-2-one]	< 5	< 5
CN1CCN(c2ccc(Nc3ncc(Cl)c(Nc4cccnc4N4CCCC4=O)n3)cc2)CC1 [compound 1, 1-(3-((5-chloro-2-((4-(4-methylpiperazin-1-yl)phenyl)amino)pyrimidin-4-yl)amino)pyridin-2-yl)pyrrolidin-2-one]	< 5	< 5
COc1cc(N2CCN(C)CC2)ccc1Nc1ncc(Cl)c(Nc2cccnc2N2CCCC2=O)n1 [compound 2, 1-(3-((5-chloro-2-((2-methoxy-4-(4-methylpiperazin-1-yl)phenyl)amino)pyrimidin-4-yl)amino)pyridin-2-yl)pyrrolidin-2-one]	< 5	< 5
CCOc1cc(N2CCN(C)CC2)ccc1Nc1ncc(Cl)c(Nc2cccnc2N(C)C)n1 [compound 3, 5-chloro-N^4-(2-(dimethylamino)pyridin-3-yl)-N^2-(2-ethoxy-4-(4-methylpiperazin-1-yl)phenyl)pyrimidine-2,4-diamine]	5 to 50	15 to 50
CC(C)Oc1cc(N2CCN(C)CC2)ccc1Nc1ncc(Cl)c(Nc2cccnc2N(C)C)n1 [compound 4, 5-chloro-N^4-(2-(dimethylamino)pyridin-3-yl)-N^2-(2-isopropoxy-4-(4-methylpiperazin-1-yl)phenyl)pyrimidine-2,4-diamine]	> 50	15 to 50
CN1CCN(c2ccc(Nc3ncc(Cl)c(Nc4cccnc4N(C)C)n3)cc2)CC1 [compound 5, 5-chloro-N^4-(2-(dimethylamino)pyridin-3-yl)-N^2-(4-(4-methylpiperazin-1-yl)phenyl)pyrimidine-2,4-diamine]	< 5	5 to 15
COc1cc(N2CCN(C)CC2)c(C)cc1Nc1ncc(Cl)c(Nc2cccnc2N2CCNC2=O)n1 [compound 9, 1-(3-((5-chloro-2-((2-methoxy-5-methyl-4-(4-methylpiperazin-1-yl)phenyl)amino)pyrimidin-4-yl)amino)pyridin-2-yl)imidazolidin-2-one]	< 5	< 5
COc1cc(N2CCN(C)CC2)c(C)cc1Nc1ncc(Br)c(Nc2cccnc2N(C)C)n1 [compound 10, 5-bromo-N^4-(2-(dimethylamino)pyridin-3-yl)-N^2-(2-methoxy-5-methyl-4-(4-methylpiperazin-1-yl)phenyl)pyrimidine-2,4-diamine]	< 5	< 5
